# PubChem BioAssay (NCI)
#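 Where inhibition never reached the appropriate level, the endpoint shown equals the highest concentration tested. Otherwise, values were interpolated linearly from a five-concentration, 48-hour dose response in 96-well plates. The concentration for full growth arrest is given as TGI.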
# Tests used:
# Assay in all cases: NCI tumour cell line growth inhibition, 48 h
# [1] = system: 786-0 renal
# [2] = system: A498 renal
# [3] = system: A549 NSCLC
# [4] = system: ACHN renal
# [5] = system: BT-549 breast
# [6] = system: CAKI-1 renal
# [7] = system: CCRF-CEM leukemia
# [8] = system: COLO 205 colon
# [9] = system: DU-145 prostate
# [10] = system: EKVX NSCLC
# [11] = system: HCT-116 colon
# [12] = system: HCT-15 colon
# [13] = system: HL-60(TB) leukemia
# [14] = system: HOP-62 NSCLC
# [15] = system: HOP-92 NSCLC
# [16] = system: HS 578T breast
# [17] = system: HT29 colon
# [18] = system: IGROV1 ovarian
# [19] = system: KM12 colon
# [20] = system: LOX IMVI melanoma
# [21] = system: M14 melanoma
# [22] = system: MALME-3M melanoma
# [23] = system: MCF7 breast
# [24] = system: MDA-MB-231 breast
# [25] = system: MDA-MB-435
# [26] = system: MDA-N
# [27] = system: NCI-H226 lung
# [28] = system: NCI-H23 lung
# [29] = system: NCI-H460 lung
# [30] = system: NCI-H522 lung
# [31] = system: NCI/ADR-RES ovarian
# [32] = system: OVCAR-3 ovarian
# [33] = system: OVCAR-4 ovarian
# [34] = system: OVCAR-5 ovarian
# [35] = system: OVCAR-8 ovarian
# [36] = system: PC-3 prostate
# [37] = system: RPMI-8226 leukemia
# [38] = system: RXF 393 renal
# [39] = system: SF-268 CNS
# [40] = system: SF-295 CNS
# [41] = system: SF-539 CNS
# [42] = system: SK-MEL-2 melanoma
# [43] = system: SK-MEL-28 melanoma
# [44] = system: SK-MEL-5 melanoma
# [45] = system: SK-OV-3 ovarian
# [46] = system: SN12C renal
# [47] = system: SNB-19 CNS
# [48] = system: SNB-75 CNS
# [49] = system: SR leukemia
# [50] = system: SW-620 colon
# [51] = system: T-47D breast
# [52] = system: TK-10 renal
# [53] = system: U251 CNS
# [54] = system: UACC-257 melanoma
# [55] = system: UACC-62 melanoma
# [56] = system: UO-31 renal
# [57] = system: HCC-2998 colon
# [58] = system: K-562 leukemia
# [59] = system: MOLT-4 leukemia
compound,measurement,setting,value
O=C1C(=O)c2ccccc2C(O)=C1C(CCc1ccccc1)C1=C(O)c2ccccc2C(=O)C1=O,TGI,[1],> 100 µM
same,TGI,[2],> 100 µM
same,TGI,[3],> 100 µM
same,TGI,[4],> 100 µM
same,TGI,[5],> 100 µM
same,TGI,[6],> 100 µM
same,TGI,[7],> 100 µM
same,TGI,[8],> 100 µM
same,TGI,[9],29.1 µM
same,TGI,[10],> 100 µM
same,TGI,[11],> 100 µM
same,TGI,[12],> 100 µM
same,TGI,[13],15.4 µM
same,TGI,[14],> 100 µM
same,TGI,[15],> 100 µM
same,TGI,[16],> 100 µM
same,TGI,[17],> 100 µM
same,TGI,[18],> 100 µM
same,TGI,[19],> 100 µM
same,TGI,[20],> 100 µM
same,TGI,[21],> 100 µM
same,TGI,[22],29.7 µM
same,TGI,[23],> 100 µM
same,TGI,[24],> 100 µM
same,TGI,[25],28.4 µM
same,TGI,[26],34.3 µM
same,TGI,[27],> 100 µM
same,TGI,[28],> 100 µM
same,TGI,[29],> 100 µM
same,TGI,[30],> 100 µM
same,TGI,[31],> 100 µM
same,TGI,[32],> 100 µM
same,TGI,[33],> 100 µM
same,TGI,[34],> 100 µM
same,TGI,[35],> 100 µM
same,TGI,[36],> 100 µM
same,TGI,[37],> 100 µM
same,TGI,[38],> 100 µM
same,TGI,[39],> 100 µM
same,TGI,[40],> 100 µM
same,TGI,[41],> 100 µM
same,TGI,[42],> 100 µM
same,TGI,[43],> 100 µM
same,TGI,[44],30.9 µM
same,TGI,[45],> 100 µM
same,TGI,[46],> 100 µM
same,TGI,[47],> 100 µM
same,TGI,[48],> 100 µM
same,TGI,[49],> 100 µM
same,TGI,[50],> 100 µM
same,TGI,[51],> 100 µM
same,TGI,[52],> 100 µM
same,TGI,[53],> 100 µM
same,TGI,[54],66.7 µM
same,TGI,[55],34.5 µM
same,TGI,[56],> 100 µM
N#CS/C(Cl)=C(/C(Cl)=C(Cl)Cl)[N+](=O)[O-],TGI,[1],76.4 µM
same,TGI,[2],> 100 µM
same,TGI,[3],> 100 µM
same,TGI,[4],> 100 µM
same,TGI,[5],> 100 µM
same,TGI,[6],> 100 µM
same,TGI,[7],> 100 µM
same,TGI,[8],> 100 µM
same,TGI,[9],> 100 µM
same,TGI,[10],> 100 µM
same,TGI,[57],> 100 µM
same,TGI,[11],75.7 µM
same,TGI,[12],45.9 µM
same,TGI,[13],> 100 µM
same,TGI,[14],> 100 µM
same,TGI,[16],61 µM
same,TGI,[17],> 100 µM
same,TGI,[18],> 100 µM
same,TGI,[58],> 100 µM
same,TGI,[19],> 100 µM
same,TGI,[20],39.8 µM
same,TGI,[21],> 100 µM
same,TGI,[22],47.1 µM
same,TGI,[23],> 100 µM
same,TGI,[24],> 100 µM
same,TGI,[26],> 100 µM
same,TGI,[59],64.9 µM
same,TGI,[27],> 100 µM
same,TGI,[28],> 100 µM
same,TGI,[29],> 100 µM
same,TGI,[31],98.1 µM
same,TGI,[32],48.9 µM
same,TGI,[33],> 100 µM
same,TGI,[34],> 100 µM
same,TGI,[35],> 100 µM
same,TGI,[36],> 100 µM
same,TGI,[38],> 100 µM
same,TGI,[39],> 100 µM
same,TGI,[40],> 100 µM
same,TGI,[41],> 100 µM
same,TGI,[43],86.5 µM
same,TGI,[44],> 100 µM
same,TGI,[45],> 100 µM
same,TGI,[46],> 100 µM
same,TGI,[47],29.3 µM
same,TGI,[48],> 100 µM
same,TGI,[49],53.9 µM
same,TGI,[50],> 100 µM
same,TGI,[51],> 100 µM
same,TGI,[52],> 100 µM
same,TGI,[53],> 100 µM
same,TGI,[54],> 100 µM
same,TGI,[55],> 100 µM
same,TGI,[56],> 100 µM
NC1=NC(OCC2(CO)CCC2)C=C(NCC2(CO)CCC2)N1 (stereo unspecified),TGI,[1],> 100 µM
same,TGI,[2],> 100 µM
same,TGI,[3],> 100 µM
same,TGI,[5],> 100 µM
same,TGI,[6],> 100 µM
same,TGI,[7],> 100 µM
same,TGI,[8],> 100 µM
same,TGI,[9],> 100 µM
same,TGI,[10],> 100 µM
same,TGI,[57],> 100 µM
same,TGI,[11],> 100 µM
same,TGI,[12],> 100 µM
same,TGI,[13],> 100 µM
same,TGI,[14],> 100 µM
same,TGI,[15],> 100 µM
same,TGI,[16],> 100 µM
same,TGI,[17],> 100 µM
same,TGI,[18],> 100 µM
same,TGI,[58],> 100 µM
same,TGI,[19],> 100 µM
same,TGI,[20],> 100 µM
same,TGI,[21],> 100 µM
same,TGI,[22],> 100 µM
same,TGI,[23],> 100 µM
same,TGI,[24],> 100 µM
same,TGI,[25],> 100 µM
same,TGI,[26],> 100 µM
same,TGI,[59],> 100 µM
same,TGI,[27],> 100 µM
same,TGI,[28],> 100 µM
same,TGI,[29],> 100 µM
same,TGI,[30],> 100 µM
same,TGI,[31],> 100 µM
same,TGI,[32],> 100 µM
same,TGI,[33],> 100 µM
same,TGI,[34],> 100 µM
same,TGI,[35],> 100 µM
same,TGI,[36],> 100 µM
same,TGI,[37],> 100 µM
same,TGI,[38],> 100 µM
same,TGI,[39],> 100 µM
same,TGI,[40],> 100 µM
same,TGI,[42],> 100 µM
same,TGI,[43],> 100 µM
same,TGI,[44],> 100 µM
same,TGI,[45],> 100 µM
same,TGI,[46],> 100 µM
same,TGI,[47],> 100 µM
same,TGI,[48],> 100 µM
same,TGI,[49],> 100 µM
same,TGI,[50],> 100 µM
same,TGI,[51],> 100 µM
same,TGI,[53],> 100 µM
same,TGI,[54],> 100 µM
same,TGI,[55],> 100 µM
same,TGI,[56],> 100 µM
